Measured values from ChEMBL document CHEMBL1268960, “Discovery of cell-active phenyl-imidazole Pin1 inhibitors by structure-guided fragment evolution” (Bioorg Med Chem Lett, 2010).
Activity calls are given as the source filed them. The calls are words filed in the database; no cut-off is given here.

Key:
[1] = target: T1, Peptidyl-prolyl cis-trans isomerase NIMA-interacting 1 (Homo sapiens, UniProt Q13526); assay: Inhibition of Pin1 by PIn1 PPIase assay
[2] = target: T1, Peptidyl-prolyl cis-trans isomerase NIMA-interacting 1; assay: Binding affinity to Pin1 by isothermal calorimetry
[3] = tested on: PC-3; assay: Growth inhibition of serum starved human PC3 cells; assay type: functional
[4] = tested on: PC-3; assay: Inhibition of cyclin E1 expression in serum starved human PC3 cells; assay type: functional, cell-based
[5] = target: T1, Peptidyl-prolyl cis-trans isomerase NIMA-interacting 1; assay: Inhibition of Pin1 in serum starved human PC3 cells assessed as reduction in insulin-induced p7)S6 kinase phosphorylation; assay type: cell-based, PC-3
[6] = target: Peptidyl-prolyl cis-trans isomerase FKBP1A (Homo sapiens) (UniProt P62942); assay: Inhibition of FKBP12
[7] = target: T1, Peptidyl-prolyl cis-trans isomerase NIMA-interacting 1; assay: Inhibition of Pin1-mediated cyclin D1 expression in serum starved human PC3 cells; assay type: cell-based, PC-3
[8] = target: Peptidyl-prolyl cis-trans isomerase A (Homo sapiens) (UniProt P62937); assay: Inhibition of cyclophilin A
Chain of Peptidyl-prolyl cis-trans isomerase A (Homo sapiens) (P62937 whole entry, looked up): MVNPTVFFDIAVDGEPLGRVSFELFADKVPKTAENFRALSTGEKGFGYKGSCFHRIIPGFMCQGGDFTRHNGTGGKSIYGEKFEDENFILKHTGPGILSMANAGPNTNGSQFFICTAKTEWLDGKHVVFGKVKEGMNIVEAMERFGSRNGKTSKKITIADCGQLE

T1 sequence (Q13526 whole entry): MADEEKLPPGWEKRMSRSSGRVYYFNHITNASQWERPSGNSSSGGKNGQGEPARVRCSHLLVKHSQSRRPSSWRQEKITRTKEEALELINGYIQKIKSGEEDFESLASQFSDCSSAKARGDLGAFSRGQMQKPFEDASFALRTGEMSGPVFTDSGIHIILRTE
Chain of Peptidyl-prolyl cis-trans isomerase FKBP1A (Homo sapiens) (P62942 whole entry): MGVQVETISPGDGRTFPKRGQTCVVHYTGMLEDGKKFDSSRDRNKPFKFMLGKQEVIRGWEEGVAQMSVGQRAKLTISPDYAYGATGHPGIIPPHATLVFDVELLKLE

Structure (SMILES) | IC50 [1] | GI50 [3] | other results
CNC(=O)c1nc(-c2ccccc2)[nH]c1C(=O)O | 80 µM |  | 
O=C(O)c1nc(-c2cccc(F)c2)[nH]c1C(=O)O | 0.32 µM |  | Kd [2]: 0.52 µM
CN(CC(N)=O)C(=O)c1nc(-c2ccccc2)[nH]c1C(=O)O |  | > 200 µM | 
O=C(O)c1[nH]c(-c2cccc(Cl)c2)nc1C(=O)N1CCOCC1 | 21 µM | > 200 µM | 
NC(=O)CN(Cc1nc2ccccc2s1)C(=O)c1nc(-c2ccccc2)[nH]c1C(=O)O | 0.52 µM | > 80 µM | 
COc1cccc(-c2nc(C)c(C(=O)O)[nH]2)c1 | 270 µM |  | 
O=C(O)c1[nH]c(-c2ccccc2)nc1C(=O)N1CCOCC1 |  | > 200 µM | 
CCNC(=O)c1nc(-c2ccccc2)[nH]c1C(=O)O | 140 µM |  | 
CCOC(=O)CN(Cc1ccccc1)C(=O)c1nc(-c2ccccc2)[nH]c1C(=O)O | 8 µM | > 200 µM | 
CN(Cc1ccccc1)C(=O)c1nc(-c2ccccc2)[nH]c1C(=O)O | 31 µM | > 200 µM | 
O=C(O)c1nc(-c2ccccc2)[nH]c1C(=O)NCc1ccccc1 | 220 µM |  | 
COc1ccccc1-c1ccc(C(=O)O)o1 | > 1000 µM |  | 
O=C(O)c1[nH]c(-c2ccccc2)nc1C(=O)N(CCc1ccccc1)Cc1ccccc1 | 0.83 µM | 13 µM | inhibition [4]: inactive; EC50 [5]: 30 µM; inhibition [6]: inactive; EC50 [7]: 10 µM; inhibition [8]: inactive
CN(CC(=O)O)C(=O)c1nc(-c2ccccc2)[nH]c1C(=O)O | 9.4 µM |  | 
Cc1nc(-c2cccc(C#N)c2)[nH]c1C(=O)O | 19 µM |  | 
O=C(O)c1nc(-c2ccccc2)[nH]c1C(=O)N(Cc1ccccc1)Cc1ccccc1 | 4 µM | 21 µM | 
O=C(O)c1[nH]c(-c2cccc(Cl)c2)nc1C(=O)N(Cc1ccccc1)Cc1ccccc1 | 1.4 µM | 18 µM | Kd [2]: 1.4 µM
O=C(O)c1nc(-c2ccccc2)[nH]c1C(=O)O | 1.46 µM |  | 
CN(Cc1ccccc1)C(=O)c1[nH]c(-c2cccc(Cl)c2)nc1C(=O)O |  | 56 µM | 
Cc1cccc(-c2nc(C(=O)O)c(C)[nH]2)c1 | 34 µM |  | 
Cc1nc(-c2cccc(C(F)(F)F)c2)[nH]c1C(=O)O | 23 µM |  | 
